Data reported in PubChem BioAssay (NCI).
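Cultured in 96-well plates, cells were exposed to test compound for 48 hours across five concentrations. Abbreviation: GI50, concentration required for 50% inhibition of growth. At the TGI there is no net growth.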

Tests used:
Test in all cases: NCI tumour cell line growth inhibition, 48 h
OVCAR-8 ovarian = system: OVCAR-8 ovarian
IGROV1 ovarian = system: IGROV1 ovarian
RXF 393 renal = system: RXF 393 renal
TK-10 renal = system: TK-10 renal
CCRF-CEM leukemia = system: CCRF-CEM leukemia
SNB-75 CNS = system: SNB-75 CNS
CAKI-1 renal = system: CAKI-1 renal
NCI-H226 lung = system: NCI-H226 lung
HCT-116 colon = system: HCT-116 colon
A549 NSCLC = system: A549 NSCLC
MDA-MB-435 = system: MDA-MB-435
ACHN renal = system: ACHN renal
HOP-92 NSCLC = system: HOP-92 NSCLC
SR leukemia = system: SR leukemia
T-47D breast = system: T-47D breast
HCC-2998 colon = system: HCC-2998 colon
NCI-H23 lung = system: NCI-H23 lung
COLO 205 colon = system: COLO 205 colon
SK-MEL-5 melanoma = system: SK-MEL-5 melanoma
SNB-19 CNS = system: SNB-19 CNS
SF-539 CNS = system: SF-539 CNS
MALME-3M melanoma = system: MALME-3M melanoma
PC-3 prostate = system: PC-3 prostate
OVCAR-4 ovarian = system: OVCAR-4 ovarian
MDA-MB-231 breast = system: MDA-MB-231 breast
HL-60(TB) leukemia = system: HL-60(TB) leukemia
HCT-15 colon = system: HCT-15 colon
SF-295 CNS = system: SF-295 CNS
BT-549 breast = system: BT-549 breast
UACC-62 melanoma = system: UACC-62 melanoma
DU-145 prostate = system: DU-145 prostate
K-562 leukemia = system: K-562 leukemia
MCF7 breast = system: MCF7 breast
EKVX NSCLC = system: EKVX NSCLC
786-0 renal = system: 786-0 renal
SF-268 CNS = system: SF-268 CNS
OVCAR-3 ovarian = system: OVCAR-3 ovarian
SK-OV-3 ovarian = system: SK-OV-3 ovarian
UACC-257 melanoma = system: UACC-257 melanoma
A498 renal = system: A498 renal
M14 melanoma = system: M14 melanoma
NCI/ADR-RES ovarian = system: NCI/ADR-RES ovarian
SW-620 colon = system: SW-620 colon
UO-31 renal = system: UO-31 renal
LOX IMVI melanoma = system: LOX IMVI melanoma
SK-MEL-2 melanoma = system: SK-MEL-2 melanoma
RPMI-8226 leukemia = system: RPMI-8226 leukemia
NCI-H460 lung = system: NCI-H460 lung
U251 CNS = system: U251 CNS
SN12C renal = system: SN12C renal
OVCAR-5 ovarian = system: OVCAR-5 ovarian
HT29 colon = system: HT29 colon
MOLT-4 leukemia = system: MOLT-4 leukemia
HS 578T breast = system: HS 578T breast
SK-MEL-28 melanoma = system: SK-MEL-28 melanoma
HOP-62 NSCLC = system: HOP-62 NSCLC
KM12 colon = system: KM12 colon
NCI-H522 lung = system: NCI-H522 lung

C[C@@H]1CC[C@@H]2[C@@H]1[C@H](OC(=O)/C=C/c1ccccc1)[C@]1(c3ccccc3)C[C@@H](OC(=O)CO)[C@@]2(C)O1
GI50 (OVCAR-8 ovarian): 6.71 µM | TGI (OVCAR-8 ovarian): 34.8 µM | GI50 (IGROV1 ovarian): 17 µM | TGI (IGROV1 ovarian): 44.5 µM | GI50 (RXF 393 renal): 0.252 µM | TGI (RXF 393 renal): 13.7 µM | GI50 (TK-10 renal): 18.2 µM | TGI (TK-10 renal): 41.8 µM | GI50 (CCRF-CEM leukemia): 20.8 µM | TGI (CCRF-CEM leukemia): 84.2 µM | GI50 (SNB-75 CNS): 11.6 µM | TGI (SNB-75 CNS): 37.9 µM | GI50 (CAKI-1 renal): 0.504 µM | TGI (CAKI-1 renal): 18.4 µM | GI50 (NCI-H226 lung): 13.2 µM | TGI (NCI-H226 lung): 29 µM | GI50 (HCT-116 colon): 12.7 µM | TGI (HCT-116 colon): 27.6 µM | GI50 (A549 NSCLC): 14.8 µM | TGI (A549 NSCLC): 33.8 µM | GI50 (MDA-MB-435): 14.9 µM | TGI (MDA-MB-435): 33.2 µM | GI50 (ACHN renal): 0.179 µM | TGI (ACHN renal): 0.597 µM | GI50 (HOP-92 NSCLC): 6.52 µM | TGI (HOP-92 NSCLC): 20.1 µM | GI50 (SR leukemia): 5.86 µM | TGI (SR leukemia): 38.8 µM | GI50 (T-47D breast): 6.67 µM | TGI (T-47D breast): 21.2 µM | GI50 (HCC-2998 colon): 14.6 µM | TGI (HCC-2998 colon): 29 µM | GI50 (NCI-H23 lung): 15 µM | TGI (NCI-H23 lung): 35.9 µM | GI50 (COLO 205 colon): 16.1 µM | TGI (COLO 205 colon): 32.7 µM | GI50 (SK-MEL-5 melanoma): 13.4 µM | TGI (SK-MEL-5 melanoma): 26.2 µM | GI50 (SNB-19 CNS): 20.2 µM | TGI (SNB-19 CNS): 55.9 µM | GI50 (SF-539 CNS): 14.6 µM | TGI (SF-539 CNS): 28.3 µM | GI50 (MALME-3M melanoma): 16.5 µM | TGI (MALME-3M melanoma): 31.4 µM | GI50 (PC-3 prostate): 3.67 µM | TGI (PC-3 prostate): 18.9 µM | GI50 (OVCAR-4 ovarian): 12.3 µM | TGI (OVCAR-4 ovarian): 27.3 µM | GI50 (MDA-MB-231 breast): 16.5 µM | TGI (MDA-MB-231 breast): 34.2 µM | GI50 (HL-60(TB) leukemia): 14.9 µM | TGI (HL-60(TB) leukemia): 53.9 µM | GI50 (HCT-15 colon): 12.7 µM | TGI (HCT-15 colon): 32.7 µM | GI50 (SF-295 CNS): 12.8 µM | TGI (SF-295 CNS): 32.3 µM | GI50 (BT-549 breast): 0.406 µM | TGI (BT-549 breast): 17.7 µM | GI50 (UACC-62 melanoma): 14.5 µM | TGI (UACC-62 melanoma): 33.3 µM | GI50 (DU-145 prostate): 15.9 µM | TGI (DU-145 prostate): 33.8 µM | GI50 (K-562 leukemia): 7.76 µM | TGI (K-562 leukemia): > 100 µM | GI50 (MCF7 breast): 9.19 µM | TGI (MCF7 breast): 26.5 µM | GI50 (EKVX NSCLC): 12.6 µM | TGI (EKVX NSCLC): 35.8 µM | GI50 (786-0 renal): 11.7 µM | TGI (786-0 renal): 29.3 µM | GI50 (SF-268 CNS): 10.4 µM | TGI (SF-268 CNS): 37.7 µM | GI50 (OVCAR-3 ovarian): 13.3 µM | TGI (OVCAR-3 ovarian): 27 µM | GI50 (SK-OV-3 ovarian): 23.4 µM | TGI (SK-OV-3 ovarian): 55.6 µM | GI50 (UACC-257 melanoma): 21.1 µM | TGI (UACC-257 melanoma): 43.1 µM | GI50 (A498 renal): 0.189 µM | TGI (A498 renal): 0.585 µM | GI50 (M14 melanoma): 16.2 µM | TGI (M14 melanoma): 35.8 µM | GI50 (NCI/ADR-RES ovarian): 4.41 µM | TGI (NCI/ADR-RES ovarian): 24.9 µM | GI50 (SW-620 colon): 19.1 µM | TGI (SW-620 colon): 42.6 µM | GI50 (UO-31 renal): 0.154 µM | TGI (UO-31 renal): 0.305 µM | GI50 (LOX IMVI melanoma): 13.9 µM | TGI (LOX IMVI melanoma): 27.2 µM | GI50 (SK-MEL-2 melanoma): 19.6 µM | TGI (SK-MEL-2 melanoma): 38.3 µM | GI50 (RPMI-8226 leukemia): 10.3 µM | TGI (RPMI-8226 leukemia): 38.9 µM | GI50 (NCI-H460 lung): 16.3 µM | TGI (NCI-H460 lung): 38.6 µM | GI50 (U251 CNS): 14.2 µM | TGI (U251 CNS): 29.3 µM | GI50 (SN12C renal): 0.538 µM | TGI (SN12C renal): 22.4 µM | GI50 (OVCAR-5 ovarian): 15.5 µM | TGI (OVCAR-5 ovarian): 34.5 µM | GI50 (HT29 colon): 15.9 µM | TGI (HT29 colon): 37.8 µM | GI50 (MOLT-4 leukemia): 6.86 µM | TGI (MOLT-4 leukemia): 33.9 µM | GI50 (HS 578T breast): 0.112 µM | TGI (HS 578T breast): 0.708 µM | GI50 (SK-MEL-28 melanoma): 16.3 µM | TGI (SK-MEL-28 melanoma): 33.4 µM | GI50 (HOP-62 NSCLC): 16.2 µM | TGI (HOP-62 NSCLC): 31.1 µM | GI50 (KM12 colon): 15.2 µM | TGI (KM12 colon): 38.1 µM | GI50 (NCI-H522 lung): 13.2 µM | TGI (NCI-H522 lung): 30 µM
